How the values were obtained:
[1] = test system: M. tuberculosis; assay type: cell-based, Mycobacterium tuberculosis
[2] = test system: M. tuberculosis mc26230 (H37Rv ΔRD1 ΔpanCD); assay type: cell-based; settings: anaerobic chamber; 4 mM VC
[3] = test system: M. tuberculosis; assay type: cell-based, Mycobacterium tuberculosis; remark: listed apart in the source
[4] = test system: M. tuberculosis H37Rv; assay type: cell-based, Mycobacterium tuberculosis
[5] = test system: M. tuberculosis H37Rv ΔRD1 ΔpanCD; assay type: cell-based; settings: treated for 3 days
[6] = test system: M. tuberculosis H37Rv ΔRD1 ΔpanCD; assay type: cell-based; settings: cysteine 4 mM, 24 h
[7] = test system: M. tuberculosis H37Rv ΔRD1 ΔpanCD; assay type: cell-based; settings: cysteine 4 mM, 24 h; remark: listed apart in the source
[8] = test system: M. tuberculosis; assay type: cell-based, Mycobacterium tuberculosis; remark: listed apart in the source

Cc1c(C)c2c(c(C)c1O)CC[C@@](C)(CCC[C@H](C)CCC[C@H](C)CCCC(C)C)O2 [VE, vitamin E, reference compound]
ROS level vs untreated samples [1]: lowered ROS level

O=C1O[C@H]([C@@H](O)CO)C(O)=C1O [VC, Vitamin C]
effect on M. tuberculosis viability [2]: no effect | increase in total ROS [1]: Up to threefold | total ROS concentration relative to the untreated sample [1]: did not substantially alter | cells with DNA breaks relative to untreated culture or culture treated with VE [3]: tenfold higher | percentage of cells with DNA breaks [3]: 17-25%

CC[C@@H](CO)NCCN[C@@H](CC)CO [EMB, Ethambutol, reference compound]
decrease in CFU [4]: very slow decrease

Cc1ccc2ccc3ccc(C)nc3c2n1 [neocuproine, reference compound]
decrease in CFUs [4]: 5 log | growth of M. tuberculosis with neocuproine alone [4]: no impact on the growth

NNC(=O)c1ccncc1 [INH, Isoniazid]
decrease in CFUs [4]: 3-4 log | intracellular levels of ferrous ions vs untreated sample [5]: very high

N[C@@H](CS)C(=O)O [cysteine]
decrease in CFUs [4]: 6 log | effect of cysteine on killing of M. tuberculosis by ETH [4]: did not increase the killing | growth of M. tuberculosis with cysteine alone [4]: not affected | cystine concentration vs untreated sample [6]: 100 times | levels of free thiols [7]: lower

OC(CS)C(O)CS (stereo not drawn) [Dithio- threitol]
sterilization of cultures when combined with INH [4]: sterilized

Antimycin
cidal activity [8]: no cidal activity
